{"source": "patent US20230151106A1", "about": "“OFATUMUMAB FOR TREATING MS WHILE MAINTAINING SERUM IgG” (NOVARTIS AG, priority 2020, published 2023)", "key": {"[1]": {"tested_on": "multiple sclerosis patients", "assay": "Infections in relation to IgM/IgG levels <LLN vs >=LLN in ofatumumab MS studies", "quoted_text": "(§1) Serum IgG/IgM levels were monitored at baseline, Week (W) 4, W12 and every 12 weeks, see FIG. 1."}, "serum IgG": {"tested_on": "serum IgG", "assay": "Serum IgG levels in ASCLEPIOS I/II (Pool C2)", "experimental": "In the present application serum Ig levels can preferably be determined by immunoturbidimetry. Preferably a Roche cobas® Analyzer was used, especially module c of the cobas® analyser. In a preferred embodiment Ig levels can be determined by using a cobas® c 311 analyzer. It is further preferred that IgG measurements are carried out as described in the cobas® leaflet “IGG-2 Tina-quant IgG Gen. 2”, preferably version 11.0 dated 2016-02 and IgM measurements as described in the leaflet “IGM-2 Tina-quant IgM Gen. 2”, preferably version 13.0 dated 2018-11.\n(§2) Serum samples were preferably kept at 2-8° C. before measurement.\nPatients were randomised (1:1) to receive either ofatumumab 20 mg sc injections every 4 weeks (after an initial loading regimen of 20 mg sc doses on Days 1, 7 and 14) or teriflunomide 14 mg orally once daily, for up to 30 months.\nas §1"}, "serum IgM": {"tested_on": "serum IgM", "assay": "Serum IgM levels in ASCLEPIOS I/II (Pool C2)", "type": "in vivo, human", "details": "any time post-baseline, FIG. 9", "experimental": "In the present application serum Ig levels can preferably be determined by immunoturbidimetry. Preferably a Roche cobas® Analyzer was used, especially module c of the cobas® analyser.\nas §2\nASCLEPIOS I and II are double-blind, double-dummy, active comparator-controlled, parallel-group, innovative, adaptive design, multicentre trials. Patients were randomised (1:1) to receive either ofatumumab 20 mg sc injections every 4 weeks (after an initial loading regimen of 20 mg sc doses on Days 1, 7 and 14) or teriflunomide 14 mg orally once daily, for up to 30 months."}, "CD19+ B-cells": {"tested_on": "CD19+ B-cells", "assay": "CD19+ B-cell depletion in ASCLEPIOS", "type": "in vivo, human", "experimental": "ASCLEPIOS I and II are double-blind, double-dummy, active comparator-controlled, parallel-group, innovative, adaptive design, multicentre trials. Patients were randomised (1:1) to receive either ofatumumab 20 mg sc injections every 4 weeks (after an initial loading regimen of 20 mg sc doses on Days 1, 7 and 14) or teriflunomide 14 mg orally once daily, for up to 30 months. […] Patients aged 18-55 years with an Expanded Disability Status Scale (EDSS) score (according to Kurtzke, Neurology. 1983, Nov; 33(11): 1444-52) of 0-5.5 at screening who experienced ≥1 relapse in the past year or ≥2 relapses in the past 2 years or a positive gadolinium-enhancing (Gd+) MRI scan during the year before randomisation were included."}, "MS patients": {"tested_on": "MS patients", "details": "cited from earlier work"}, "IgG levels": {"tested_on": "IgG levels", "assay": "Metanalysis of Example 1 versus Derfuss et al. (pooled OPERA), IgG levels", "type": "in vivo, human", "details": "in vivo", "text": "In a metanalysis, the results of Example 1 and the results obtained by Derfuss et al. were compared."}, "[2]": {"tested_on": "multiple sclerosis patients", "details": "in vivo; cited from earlier work"}, "[3]": {"details": "Ofatumumab N=134, Teriflunomide N=214"}, "[4]": {"details": "anytime during post baseline visit"}, "[5]": {"details": "after the last infusion, 51 patients from MS clinical studies"}}, "data": [{"molecule": "C/C(O)=C(\\C#N)C(=O)Nc1ccc(C(F)(F)F)cc1", "note": "[teriflunomide]", "values": [{"measurement": "Infections observed after the first drop of IgG<LLN", "setting": "[1]; [3]", "result": 36.4, "unit": "%"}, {"measurement": "Infections observed after the first drop of IgG<LLN, number of patients", "setting": "[1]; [3]", "result": 78}, {"measurement": "patients who reported an infection post study drug discontinuation", "setting": "[1]; among patients who discontinued treatment for Ig decline", "result": "2 of 7"}, {"measurement": "change in mean serum IgG value from baseline", "setting": "serum IgG; Week 96", "result": -0.421, "unit": "g/L"}, {"measurement": "decrease in mean IgG value from baseline", "setting": "serum IgG; Week 96", "result": 4.1, "unit": "%"}, {"measurement": "patients with IgG levels on or above the LLN", "setting": "serum IgG; any time post-baseline, FIG. 9", "result": "> 77", "unit": "%"}, {"measurement": "patients with IgG below LLN, n/N", "setting": "serum IgG; [4]", "result": "214/934"}, {"measurement": "proportion of patients with IgG below LLN", "setting": "serum IgG; [4]", "result": 22.9, "unit": "%"}, {"measurement": "patients with IgM levels on or above the LLN", "setting": "serum IgM", "result": "> 90", "unit": "%"}, {"measurement": "patients with CD19+ B-cells below LLN", "setting": "CD19+ B-cells; Week 1", "result": "(2.0) %"}, {"measurement": "patients with CD19+ B-cells below LLN, n/M", "setting": "CD19+ B-cells; Week 1", "result": "9/443"}, {"measurement": "patients with CD19+ B-cells below LLN", "setting": "CD19+ B-cells; Week 2", "result": "(1.6) %"}, {"measurement": "patients with CD19+ B-cells below LLN, n/M", "setting": "CD19+ B-cells; Week 2", "result": "7/437"}, {"measurement": "patients with CD19+ B-cells below LLN", "setting": "CD19+ B-cells; Week 4", "result": "(3.2) %"}, {"measurement": "patients with CD19+ B-cells below LLN, n/M", "setting": "CD19+ B-cells; Week 4", "result": "14/444"}, {"measurement": "patients with CD19+ B-cells below LLN", "setting": "CD19+ B-cells; Week 12", "result": "(3.0) %"}, {"measurement": "patients with CD19+ B-cells below LLN, n/M", "setting": "CD19+ B-cells; Week 12", "result": "13/439"}, {"measurement": "patients with CD19+ B-cells below LLN", "setting": "CD19+ B-cells; Week 24", "result": "(2.1) %"}, {"measurement": "patients with CD19+ B-cells below LLN, n/M", "setting": "CD19+ B-cells; Week 24", "result": "9/419"}, {"measurement": "patients with CD19+ B-cells below LLN", "setting": "CD19+ B-cells; Week 36", "result": "(1.2) %"}, {"measurement": "patients with CD19+ B-cells below LLN, n/M", "setting": "CD19+ B-cells; Week 36", "result": "5/408"}, {"measurement": "patients with CD19+ B-cells below LLN", "setting": "CD19+ B-cells; Week 48", "result": "(1.3) %"}, {"measurement": "patients with CD19+ B-cells below LLN, n/M", "setting": "CD19+ B-cells; Week 48", "result": "5/394"}, {"measurement": "patients with CD19+ B-cells below LLN", "setting": "CD19+ B-cells; Week 60", "result": "(2.1) %"}, {"measurement": "patients with CD19+ B-cells below LLN, n/M", "setting": "CD19+ B-cells; Week 60", "result": "8/382"}, {"measurement": "patients with CD19+ B-cells below LLN", "setting": "CD19+ B-cells; Week 72", "result": "(1.0) %"}, {"measurement": "patients with CD19+ B-cells below LLN, n/M", "setting": "CD19+ B-cells; Week 72", "result": "3/304"}, {"measurement": "patients with CD19+ B-cells below LLN", "setting": "CD19+ B-cells; Week 84", "result": "(2.1) %"}, {"measurement": "patients with CD19+ B-cells below LLN, n/M", "setting": "CD19+ B-cells; Week 84", "result": "4/195"}, {"measurement": "patients with CD19+ B-cells below LLN", "setting": "CD19+ B-cells; Week 96", "result": "(0.8) %"}, {"measurement": "patients with CD19+ B-cells below LLN, n/M", "setting": "CD19+ B-cells; Week 96", "result": "1/121"}, {"measurement": "patients with CD19+ B-cells below LLN", "setting": "CD19+ B-cells; Week 108", "result": "(4.5) %"}, {"measurement": "patients with CD19+ B-cells below LLN, n/M", "setting": "CD19+ B-cells; Week 108", "result": "3/67"}, {"measurement": "patients with CD19+ B-cells below LLN, n/M", "setting": "CD19+ B-cells; Week 120", "result": "0/16"}, {"measurement": "patients with B-cells below LLN", "setting": "CD19+ B-cells; throughout the study Treatment epoch", "result": "up to 4.5%"}]}, {"molecule": "ocrelizumab: anti-CD20 monoclonal antibody with a humanized antibody backbone, approved for relapsing and primary progressive MS", "values": [{"measurement": "median time for B-cell counts to return to either baseline or LLN", "setting": "MS patients; [5]", "result": 72, "unit": "weeks"}, {"measurement": "range of time for B-cell counts to return to either baseline or LLN", "setting": "MS patients; [5]", "result": "27-175 weeks"}, {"measurement": "effect on total immunoglobulins", "setting": "MS patients; in vivo", "result": "decrease in total immunoglobulins"}, {"measurement": "malignancies compared to control groups", "setting": "MS patients; in vivo", "result": "increased number of malignancies"}, {"measurement": "patients whose B-cell counts rose to either baseline or LLN", "setting": "MS patients; within 2.5 years after the last infusion", "result": 90, "unit": "%"}, {"measurement": "effect on IgG levels on the long term", "setting": "IgG levels", "result": "leads to a reduction of IgG levels"}, {"measurement": "approximate mean rate of reduction in serum Ig levels", "setting": "[2]", "result": "3-4 % per year"}, {"measurement": "infection rate, association with IgG, first value", "setting": "[2]", "result": "6.50 /100PY"}, {"measurement": "infection rate, association with IgG, second (vs) value", "setting": "[2]", "result": "2.11 /100PY"}, {"measurement": "infection rate, association with IgM, first value", "setting": "[2]", "result": "3.66 /100PY"}, {"measurement": "infection rate, association with IgM, second (vs) value", "setting": "[2]", "result": "1.88 /100PY"}]}]}
